“And” between values parts separate entries of the source, which are not always exact repeats. Equal entries are not always repeated.
Tests used:
[1] = Inhibition of Vibrio cholerae alpha-carbonic anhydrase preincubated for 15 mins by stopped-flow CO2 hydration assay
[2] = molecular target: Carbonic anhydrase 1 (Homo sapiens, UniProt P00915); test: Inhibition of human carbonic anhydrase 1 preincubated for 15 mins by stopped-flow CO2 hydration assay
Sequence of Carbonic anhydrase 1 (P00915 whole entry): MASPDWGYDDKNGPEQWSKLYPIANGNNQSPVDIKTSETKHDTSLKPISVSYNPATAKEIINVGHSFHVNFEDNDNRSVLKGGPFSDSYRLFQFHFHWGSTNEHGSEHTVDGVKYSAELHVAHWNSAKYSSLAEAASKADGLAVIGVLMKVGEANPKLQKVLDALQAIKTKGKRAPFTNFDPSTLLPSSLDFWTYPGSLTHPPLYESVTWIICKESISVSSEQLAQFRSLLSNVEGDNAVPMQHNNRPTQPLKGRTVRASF

For `OB(O)c1ccccc1` [PHENYLBORONIC ACID], the Ki [1] was 7 µM.

For `O=NO` [NITROUS ACID], the Ki [1] was 34100 µM.

Work on `O=S(O)O` [SULFUROUS ACID] yielded a Ki [1] of 68 µM.

`N=C=[Se]` [ISOSELENOCYANATE] showed a Ki [2] of 8.5 µM and a Ki [1] of 760 µM.

Molecule `N#CO` [CYANATE] has a Ki [1] of 75 µM.

`O=P(O)(O)OP(=O)(O)O` [PYROPHOSPHORIC ACID] showed a Ki [1] of 2960 µM.

Work on `I` [IODIDE] yielded a Ki [1] of 9730 µM.

`[N-]=[N+]=[N-]` gave a Ki [1] of 760 µM.

`S` [HYDROGEN SULFIDE] gave a Ki [1] of 74 µM.

In the case of `[O-][Cl+3]([O-])([O-])O` [PERCHLORATE], the Ki [1] is reported as greater than 200000 µM.

For `O=S(=O)(O)O` [SULFURIC ACID], the Ki [1] was 850 µM.

For `CCN(CC)C(=S)S` [DITIOCARB], the Ki [1] was 43 µM.

`O=[N+]([O-])O` showed a Ki [1] of 670 µM.

Work on `F` [FLUORIDE ION] yielded a Ki [1] of 800 µM.

For `NS(N)(=O)=O` [SULFAMIDE], the Ki [1] was 8 µM.

`S=C(S)S` [CARBONOTRITHIOIC ACID] showed a Ki [1] of 88 µM.

In the case of `O=S(=O)(O)NS(=O)(=O)O`, the Ki [1] is reported as 88200 µM.

In the case of `Cl` [HYDROCHLORIC ACID], the Ki [1] is reported as 930 µM.

Work on `N=C=S` [ISOTHIOCYANATE] yielded a Ki [1] of 820 µM.

With `O=C(O)O` [BICARBONATE] the Ki [1] was 4640 µM and 5130 µM.

`NS(=O)(=O)O` [SULFAMATE] showed a Ki [1] of 31 µM.

`O=[Te](=O)(O)O` gave a Ki [1] of 14500 µM.

In the case of `Br` [BROMIDE], the Ki [1] is reported as 28000 µM.

With `O=[As](O)(O)c1ccccc1` [PHENYLARSONIC ACID] the Ki [1] was 23 µM.

With `F[B-](F)(F)F` the Ki [2] was greater than 200000 µM and the Ki [1] was greater than 200000 µM.

For `O=S(=O)(O)OOS(=O)(=O)O`, the Ki [1] was 84100 µM.

For `O=[Se](=O)(O)O` [SELENIC ACID], the Ki [1] was 60800 µM.

Reference: ChEMBL document CHEMBL3763131, “Anion inhibition studies of the β-carbonic anhydrase from the pathogenic bacterium Vibrio cholerae” (Bioorg Med Chem Lett, 2016)
